In ChEMBL document CHEMBL6078615, “Sesquilignans: Current research and potential prospective” (Eur J Med Chem, 2024):
Converted amounts (≈) assume the structure as drawn.

Assays:
SH-SY5Y [1] = assay: Inhibition of H2O2-induced oxidative stress in human SH-SY5Y cells assessed as residual ROS level at 25 uM incubated for 3 hrs relative to control; assay type: functional
[2] = Inhibition of alpha-glucosidase (unknown origin); set-up: species or system Homo sapiens
BV-2 [3] = assay: Anti-inflammatory activity against mouse BV-2 cells assessed as inhibition of LPS-induced NO production pretreated for 2 hrs followed stimulated with LPS for 22 hrs by Griess reaction assay; assay type: functional, cell-based
RAW264.7 [4] = assay: Anti-inflammatory activity in mouse RAW264.7 cells assessed as inhibition of LPS-induced NO production pre-incubated for 2 hrs followed by LPS-stimulation for 22 hrs by Griess reaction assay; assay type: functional; set-up: concentration or dose not given beside the values; conditions: time 24 hrs
HT-29 = assay: Antiproliferative activity against human HT-29 cells assessed as reduction in cell viability after 72 hrs by MTS assay; assay type: functional, cell-based; conditions: HT-29, 72 h
HepG2 = assay: Cytotoxicity against human HepG2 cells assessed as reduction in cell viability by MTT assay; assay type: functional, cell-based
HL-60 = assay: Antiproliferative activity against human HL-60 cells assessed as reduction in cell viability incubated for 72 hrs by MTT assay; assay type: functional, cell-based; conditions: HL-60, 72 h
MCF7 = assay: Cytotoxicity against human MCF7 cells assessed as reduction in cell viability incubated for 72 hrs by MTT assay; assay type: functional, cell-based; conditions: MCF7, 72 h
K562 = assay: Antiproliferative activity against human K562 cells assessed as reduction in cell viability incubated for 72 hrs by CCK-8 assay; assay type: functional, cell-based; conditions: K562, 72 h
BV-2 [5] = assay: Anti-inflammatory activity against mouse BV-2 cells assessed as inhibition of LPS-induced NO production at 10 uM pretreated for 2 hrs followed stimulated with LPS for 22 hrs by Griess reaction assay relative to control; assay type: functional; conditions: time 24 hrs
CNE-2 = assay: Anticancer activity against human CNE-2 cells assessed as reduction in cell growth; assay type: functional, cell-based
HeLa = assay: Cytotoxicity against human HeLa cells assessed as reduction in cell viability incubated for 48 hrs by MTT assay; assay type: functional, cell-based
Acetylcholinesterase = Acetylcholinesterase (Homo sapiens, UniProt P22303); assay: Inhibition of AChE (unknown origin)
SH-SY5Y [6] = assay: Induction of apoptosis in human SH-SY5Y cells assessed as increase in caspase-3 activity at 25 uM incubated for 72 hrs by colorimetric assay relative to control; assay type: functional
[7] = Antioxidant activity assessed as DPPH radical scavenging activity incubated for 30 mins by spectrophotometric analysis; assay type: functional
Ebolavirus = assay: Antiviral activity against Ebola virus; assay type: functional, organism-based; conditions: Orthoebolavirus
RAW264.7 [8] = assay: Antiinflammatory activity in LPS-induced mouse RAW264.7 cells assessed as inhibition of IL-1beta secretion preincubated for 1 hr followed by LPS addition for 24 hrs by ELISA method; assay type: functional, cell-based
RAW264.7 [9] = assay: Antiinflammatory activity in LPS-induced mouse RAW264.7 cells assessed as inhibition of TNFalpha secretion preincubated for 1 hr followed by LPS addition measured for 24 hrs by ELISA method; assay type: functional, cell-based
RAW264.7 [10] = assay: Antiinflammatory activity in LPS-induced mouse RAW264.7 cells assessed as inhibition of IL-6 secretion preincubated for 1 hr followed by LPS addition for 24 hrs by ELISA method; assay type: functional, cell-based
[11] = Cytotoxicity against human HUVEC cells assessed as reduction in cell growth incubated for 48 hrs by CCK-8 method; assay type: toxicity, cell-based

Acetylcholinesterase, sequence (P22303 whole entry): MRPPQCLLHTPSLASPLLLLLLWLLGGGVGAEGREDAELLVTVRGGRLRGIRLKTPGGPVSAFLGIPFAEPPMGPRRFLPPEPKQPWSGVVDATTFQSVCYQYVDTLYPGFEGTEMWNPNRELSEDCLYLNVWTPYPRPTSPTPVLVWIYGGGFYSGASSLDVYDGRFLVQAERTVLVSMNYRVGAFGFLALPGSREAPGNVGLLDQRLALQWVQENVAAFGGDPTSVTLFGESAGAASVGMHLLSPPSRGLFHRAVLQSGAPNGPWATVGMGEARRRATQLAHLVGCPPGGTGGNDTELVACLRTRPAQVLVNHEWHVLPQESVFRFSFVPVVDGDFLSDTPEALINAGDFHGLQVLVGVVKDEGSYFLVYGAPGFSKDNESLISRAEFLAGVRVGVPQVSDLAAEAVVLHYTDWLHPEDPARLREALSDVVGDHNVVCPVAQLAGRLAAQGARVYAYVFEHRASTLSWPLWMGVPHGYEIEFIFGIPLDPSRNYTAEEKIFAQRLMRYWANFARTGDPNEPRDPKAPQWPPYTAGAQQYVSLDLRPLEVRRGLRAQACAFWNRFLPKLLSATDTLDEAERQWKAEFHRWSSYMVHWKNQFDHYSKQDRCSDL

## COc1cc([C@H](OC)[C@@H](CO)Oc2ccc([C@@H](O)[C@H](CO)Oc3ccc(CCCO)cc3OC)cc2OC)ccc1O
SH-SY5Y [1]
  Activity: 74.22%

## COc1cc(O)cc([C@@H]2c3c(cc(OC)c4c3[C@H](CO)[C@H](c3ccc(O)c(OC)c3)O4)C[C@H](CO)[C@H]2CO)c1
[2]
  IC50: 5.17 µM

## COc1cc([C@@H](O)[C@@H](CO)Oc2ccc([C@H](O)[C@H](CO)Oc3c(OC)cc([C@H](O)[C@@H](O)CO)cc3OC)cc2OC)ccc1O
SH-SY5Y [1]
  Activity: 75.8%

## COc1cc([C@H](O)[C@@H](CO)Oc2ccc([C@@H](O)[C@@H](CO)Oc3c(OC)cc(CCCO)cc3OC)cc2OC)ccc1O
SH-SY5Y [1]
  Activity: 77.58%

## COc1cc(/C=C/C=O)cc2c1O[C@H](c1ccc3c(c1)[C@H](CO)[C@@H](c1ccc(O)cc1)O3)[C@H]2CO
BV-2 [3]
  IC50: 38.9 µM

## C=CCc1ccc2c(c1)O[C@@H](c1ccc(O)c(O)c1)[C@H](Cc1cc(O)c(O)cc1CC=C)O2
RAW264.7 [4]
  Activity: 9.87%

## COc1cc([C@@H](O)[C@@H](CO)Oc2c(OC)cc([C@@H]3Oc4c(OC)cc([C@H](O)[C@@H](O)CO)cc4[C@H]3CO)cc2OC)ccc1O
SH-SY5Y [1]
  Activity: 63.72%

## COc1cc([C@H]2O[C@H](c3ccc4c(c3)OCO4)[C@H](C)[C@H]2C)ccc1O[C@H](C)[C@H](O)c1ccc2c(c1)OCO2
HT-29
  IC50: 10 µM

## COc1cc([C@@H](O)[C@@H](C)Oc2ccc([C@H]3O[C@@H](c4ccc(O)c(OC)c4)[C@H](C)[C@H]3C)cc2OC)ccc1O
HepG2
  IC50: 11 µM
HL-60
  IC50: 11 µM
RAW264.7 [4]
  Activity: 18.1%
MCF7
  IC50: 9.8 µM

## COc1cc(C[C@H]2COC(=O)[C@@H]2Cc2cc(OC)c3c(c2)[C@H](CO)[C@@H](c2ccc(O)c(OC)c2)O3)ccc1O
K562
  IC50: 53.5 µg/mL (≈ 99.7 µM)

## COc1ccc([C@@H]2O[C@H](c3ccc(OC)c(O[C@@H](C)[C@@H](OC)c4ccc(OC)c(O)c4)c3)[C@@H](C)[C@@H]2C)cc1O
RAW264.7 [4]
  Activity: 18.1%
MCF7
  IC50: 8.4 µM

## COc1cc([C@H]2OC[C@H]3[C@@H]2CO[C@@H]3c2cc(OC)c3c(c2)[C@H](CO)[C@@H](c2ccc(O)c(OC)c2)O3)ccc1O
BV-2 [5]
  inhibition at 10 µM: 50.7%

## COc1cc(CC(CO)C(CO)Cc2ccc(OC(CO)C(O)c3ccc(O)c(OC)c3)c(OC)c2)ccc1O (configuration not stated)
CNE-2
  EC50: 2.4 µg/mL (≈ 4.3 µM)
HeLa
  IC50: 195 µg/mL (≈ 348 µM)

## COc1cc(C[C@H]2C(=O)OC[C@@H]2Cc2cc(OC)c3c(c2)[C@H](CO)[C@@H](c2ccc(O)c(OC)c2)O3)ccc1O
K562
  IC50: 51.1 µg/mL (≈ 95.2 µM)

## COc1cc([C@H](O)[C@@H](CO)Oc2ccc([C@@H](O)[C@H](CO)Oc3c(OC)cc([C@H](O)[C@@H](O)CO)cc3OC)cc2OC)ccc1O
SH-SY5Y [1]
  Activity: 75.9%

## COc1cc(C[C@@H](CO)[C@H](CO)Cc2cc(OC)c3c(c2)[C@H](CO)[C@@H](c2ccc(O)c(OC)c2)O3)ccc1O
CNE-2
  EC50: 2 µg/mL (≈ 3.7 µM)
HeLa
  IC50: 114 µg/mL (≈ 211 µM)

## C=CCc1ccc(O)c(-c2cc(CC=C)cc(-c3cc(CC=C)ccc3O)c2O[C@@H]2C[C@@H](C(C)C)C=C[C@]2(C)O)c1
Acetylcholinesterase
  IC50: 6.55 µM

## COc1cc([C@@H]2c3c(cc(OC)c4c3[C@H](CO)[C@H](c3ccc(O[C@@H]5O[C@H](CO)[C@@H](O)[C@H](O)[C@H]5O)c(OC)c3)O4)C[C@H](CO)[C@H]2CO)ccc1O
RAW264.7 [4]
  Activity: 64.82%

## COc1cc([C@@H]2c3cc(O[C@H](CO)[C@@H](O)c4ccc(O)c(OC)c4)c(OC)cc3C[C@H](CO)[C@@H]2CO)ccc1O
SH-SY5Y [6]
  Activity: 79.36%

## COc1cc([C@@H](OC)[C@@H](CO)Oc2c(OC)cc([C@@H]3Oc4c(OC)cc([C@H](O)[C@@H](O)CO)cc4[C@H]3CO)cc2OC)ccc1O
SH-SY5Y [1]
  Activity: 90.74%
SH-SY5Y [6]
  Activity: 90.74%

## COc1cc([C@@H](O)[C@@H](CO)Oc2c(OC)cc([C@@H]3Oc4c(OC)cc([C@H](O)[C@H](O)CO)cc4[C@H]3CO)cc2OC)ccc1O
SH-SY5Y [1]
  Activity: 75.63%

## COc1cc([C@@H](O)[C@H](CO)Oc2ccc([C@H]3OC[C@H]4[C@@H]3CO[C@@H]4c3ccc(O)c(OC)c3)cc2OC)ccc1O
[2]
  IC50: 5.17 µM

## CC(Cc1ccc(O)cc1)c1cc([C@H]2O[C@@H](c3ccc(O)c(O)c3)[C@H](C)[C@H]2C)ccc1O (some centres not stated)
[7]
  IC50: 1.12 µM

## OC/C=C/c1ccc2c(c1)O[C@H](c1ccc3c(c1)O[C@@H](c1ccc(O)c(O)c1)[C@H](CO)O3)[C@@H](CO)O2
[2]
  IC50: 0.62 µM

## COc1cc([C@@H]2c3c(cc(OC)c4c3[C@H](CO)[C@H](c3ccc(O)c(OC)c3)O4)C[C@H](CO)[C@H]2CO)ccc1O
RAW264.7 [4]
  Activity: 19.46%

## COc1ccc([C@@H](O)[C@@H](C)Oc2ccc([C@H]3O[C@H](c4ccc(OC)c(OC)c4)[C@H](C)[C@H]3C)cc2OC)cc1OC
Ebolavirus
  EC50: 1.7 µM

## COc1cc([C@@H](O)[C@@H](C)Oc2ccc([C@@H]3O[C@H](c4ccc(O)c(OC)c4)[C@H](C)[C@H]3C)cc2OC)ccc1O
Ebolavirus
  EC50: 6.95 µM

## COc1cc([C@H]2OC[C@H]3[C@@H]2CO[C@@H]3c2ccc(O[C@H](CO)[C@@H](O)c3ccc(O)c(OC)c3)c(OC)c2)ccc1O
[2]
  IC50: 6.73 µM

## COc1cc([C@H](O)[C@@H](CO)Oc2c(OC)cc([C@H]3OC[C@H]4[C@@H]3CO[C@@H]4c3cc(OC)c(O)c(OC)c3)cc2OC)ccc1O
RAW264.7 [8]
  IC50: 10.9 µM
RAW264.7 [9]
  IC50: 50.9 µM
RAW264.7 [10]
  IC50: 2.4 µM

## COCc1c(-c2ccc(O)c(OC)c2)oc2c(OC)cc([C@H]3OC[C@@H]4[C@H]3CO[C@@H]4c3ccc(O)c(OC)c3)cc12
[11]
  IC50 at 48 h: 32.8 µM

## COc1cc([C@@H](O)[C@@H](CO)Oc2c(OC)cc([C@@H]3OC[C@@H]4[C@H]3CO[C@H]4c3cc(OC)c(O)c(OC)c3)cc2OC)ccc1O
[2]
  IC50: 15.4 µM

## COc1ccc([C@@H](O)[C@@H](C)Oc2ccc([C@H]3O[C@H](c4ccc5c(c4)OCO5)[C@H](C)[C@H]3C)cc2OC)cc1OC
RAW264.7 [4]
  Activity: 2.62%

## OC[C@@H]1Oc2ccc([C@H]3OC[C@H]4[C@@H]3CO[C@@H]4c3ccc(O)c(O)c3)cc2O[C@H]1c1ccc(O)c(O)c1 [PRINCEPIN]
BV-2 [3]
  IC50: 1.28 µM

## COC[C@H]1c2cc(C[C@@H]3C(=O)OC[C@H]3Cc3ccc(O)c(OC)c3)ccc2O[C@@H]1c1ccc(O)c(OC)c1
RAW264.7 [4]
  Activity: 8.59%

## COc1cc([C@H]2OC[C@H]3[C@@H]2CO[C@@H]3c2cc(OC)c(OC)c(OC)c2)ccc1O[C@@H](CO)[C@H](O)c1cc(OC)c(OC)c(OC)c1
BV-2 [3]
  IC50: 10.9 µM

## COc1cc([C@@H](O)[C@@H](CO)Oc2ccc([C@@H]3OC[C@@H]4[C@H]3CO[C@H]4c3ccc(O)c(OC)c3)cc2OC)ccc1O
[2]
  IC50: 3.05 µM

## C=CCc1ccc(Oc2cc(CC=C)cc(-c3cc(CC=C)ccc3O)c2O)cc1
Acetylcholinesterase
  IC50: 10 µM

## COc1cc([C@@H]2c3cc(O[C@H](CO)[C@H](O)c4ccc(O)c(OC)c4)c(OC)cc3C[C@H](CO)[C@H]2CO)ccc1O
SH-SY5Y [6]
  Activity: 80.72%

## CCO[C@@H](c1ccc(O)c(OC)c1)[C@H](CO)Oc1ccc([C@H](O)[C@@H](CO)Oc2ccc(CCCO)cc2OC)cc1OC
SH-SY5Y [1]
  Activity: 71.1%

## COc1cc([C@@H](O)[C@@H](CO)Oc2ccc([C@H](O)[C@H](CO)Oc3c(OC)cc([C@H](O)[C@H](O)CO)cc3OC)cc2OC)ccc1O
SH-SY5Y [1]
  Activity: 74.78%

## Oc1ccc(/C=C/C[C@@H]2CC(C(O)c3ccc(O)cc3)CO[C@H]2c2ccc(O)cc2)cc1 (some centres not stated)
RAW264.7 [4]
  Activity: 33%

## COc1cc([C@H]2Oc3c(OC)cc(C[C@H]4C(=O)OC[C@@H]4Cc4ccc(OC)c(OC)c4)cc3[C@@H]2CO)ccc1O
K562
  IC50: 38.5 µg/mL (≈ 69.9 µM)

## C=CCc1ccc(O)c(-c2cc(CC=C)cc(-c3cc(CC=C)ccc3O)c2O[C@H]2CC(C)(C)[C@@H]3CC[C@]4(C)C[C@]23CC[C@H]4O)c1
Acetylcholinesterase
  IC50: 4.58 µM

## COc1cc([C@H](OC)[C@@H](CO)Oc2c(OC)cc([C@@H]3Oc4c(OC)cc([C@H](O)[C@@H](O)CO)cc4[C@H]3CO)cc2OC)ccc1O
SH-SY5Y [1]
  Activity: 76.21%

## COc1cc([C@@H](O)[C@@H](CO)Oc2ccc([C@@H](O)[C@H](CO)Oc3c(OC)cc(CCCO)cc3OC)cc2OC)ccc1O
SH-SY5Y [6]
  Activity: 77.58%

## COc1cc([C@H]2OC[C@H]3[C@@H]2CO[C@@H]3c2cc(OC)c(O[C@@H](CO)[C@@H](OC)c3ccc(O)c(OC)c3)c(OC)c2)ccc1O
[7]
  IC50: 55.8 µM

## COc1ccc([C@@H]2O[C@H](c3ccc(OC)c(O[C@H](C)[C@@H](O)c4ccc(O)c(OC)c4)c3)[C@H](C)[C@H]2C)cc1O
RAW264.7 [4]
  Activity: 18.1%
MCF7
  IC50: 8.8 µM
